Results: patent publication US12616759B2, “Uses of labeled HSP90 inhibitors” (Sloan-Kettering Institute for Cancer Research, priority 2011, dated 2026)
pEC50, pIC50: −log10 of the molar value. Read-outs that look alike come from different tables or passages of the source.

How the values were obtained:
HSP90 [1] = assay: fluorescence polarization HSP90 binding assay using SKBr3 cancer cell lysate
HSP90 [2] = conditions: for pIC50: read-out: IC50, binding to HSP90
Procedure: FIGS. 1A, 1B, 1C, 1D, and 1E. […] Lysate=control cell extract. FIG. 1B HSP90 from MDA-MB-468 extracts was isolated through sequential chemical- and immuno-purification steps. The amount of HSP90 in each pool was quantified by densitometry and values were normalized to an internal standard. […] Representative data of four separate repeats is presented (lower). Expression of HSP90 in the indicated cells was analyzed by Western blot (upper). […] Post-treatment cells were treated with 1 μM PU-FITC. Binding of PU-FITC to the cells was evaluated by flow cytometry and is represented as mean fluorescence intensity (MFI). TEG-FITC is shown as a non-specific binding control. CD45 vs. SSC gating was used to distinguish binding to blast or lymphocytes from the primary specimens. […] Cell viability was evaluated by annexin V/7-AAD staining 96 h post-treatment.
CD34+ cell isolation was performed using CD34 MicroBead Kit and the automated magnetic cell sorter autoMACS according to the manufacturer's instructions (Miltenyi Biotech, Auburn, CA). […] Cell viability was analyzed by flow cytometry (BD Biosciences). […] Cells were stained with CD34-APC, CD38-PE-CY7 and CD45-APC-H7 antibodies (BD Biosciences) in FACS buffer (PBS, 0.05% FBS) at 4° C. for 30 min prior to Annexin V/7-AAD staining. […] At 4 h post treatment, cells were washed twice with FACS buffer. […] At 24 h post treatment, cells were washed twice, and stained with CD34-APC (or CD34-PECy7), CD38-PE-CY7 (or CD38-PE) and CD45-APC-H7 antibodies in FACS buffer at 4° C. for 30 min prior to 7-AAD staining. At 48 h, and 96 h post treatment, cells were stained with CD34-APC (or CD34-PECy7), CD38-PE-CY7 (or CD38-PE) and CD45-APC-H7 antibodies followed by Annexin V-V450 and 7-AAD staining to measure cell viability in blast, lymphocytes and CD34+ cell populations. […] Cells were collected, washed twice, stained for 7-AAD in FACS buffer, and analyzed by flow cytometry. HSP90 staining—Cells were fixed with fixation buffer (BD Biosciences) at 4° C. for 30 min, and permeabilized in Perm Buffer III (BD Biosciences) on ice for 30 min. Cells were stained with anti-HSP90 phycoerythrin conjugate (PE) (F-8 clone, Santa Cruz Biotechnologies; CA) for 60 minutes. Cells were washed and then analyzed by flow cytometry. Normal mouse IgG2a-PE was used as isotype control.

circulating tumor cells = assay: number of circulating tumor cells in blood of patient after PU-H71; assay type: in vivo, human; conditions: 24 h after 20 mg/m2
Source text: Circulating tumor cells (CTCs) are cells that have detached from a primary tumor and circulate in the bloodstream. CTCs may constitute seeds for subsequent growth of additional tumors (metastasis) in different tissues.

MDA-MB-468 tumors = assay: efficacy in MDA-MB-468 xenografts; assay type: in vivo, mice; conditions: for anti-tumor effect: 75 mg/kg, 5 weeks
Procedure: Efficacy Studies. Mice (n=5) bearing MDA-MB-468 tumors reaching a volume of 100-150 mm^3 were treated i.p. (i.p.) using different doses and schedules, as indicated. Tumor volume was determined by measurement with Vernier calipers, and tumor volume was calculated as the product of its length×width^2×0.4. Tumor volume was expressed on indicated days as the median tumor volume±SD indicated for groups of mice. Percent (%) tumor growth inhibition values were measured on the final day of study for drug-treated compared with vehicle treated mice and are calculated as 100×{1−[(TreatedFinal day−TreatedDay 1)/(ControlFinal day−ControlDay 1)]}. Tumor regression values were determined by calculating the ratio of median tumor volumes at the time when treatment was initiated to median tumor volume on the final day of study for a given treatment group. Percent (%) tumor regression is 100×[1−(TreatedFinal day/TreatedDay 1)].

caspase-3,7 = assay: caspase 3,7 activation assay; assay type: cell-based
Procedure: Caspase 3,7 Activation Assay: Cells were plated and treated as described in the growth inhibition assay section. Following a 24 h or 48 h exposure of cells to Hsp90 inhibitors, 100 μL buffer containing 10 mM Hepes, pH 7.5, 2 mM EDTA, 0.1% CHAPS, 0.1 mg/mL PMSF, Complete Protease Inhibitor mix (#1697498; Roche), and the caspase substrate Z-DEVD-R110 (#R22120; Molecular Probes) at 25 μM was added to each well. Plates were placed on an orbital shaker to promote cell lysis and reaction. The fluorescence signal of each well was measured in an Analyst GT (Molecular Dev ices) microplate reader (excitation 485 nm; emission at 530 nm). The percentage increase in caspase-3,7 activity was calculated by comparison of the fluorescence reading obtained from treated versus control cells. All experimental data were analyzed using SOFTmax Pro 4.3.1 and plotted using Prism 4.0 (Graphpad Software Inc., San Diego, CA).

patient tumors = assay: [^124I]-PU-H71 PET/CT in cancer patients, tumor exposure to PU-H71; conditions: for tumor AUC: two weeks; for tumor AUC0-48 h: paratracheal node
oncogenic HSP90 = assay: PU-H71-FITC2 binding to pancreatic and breast cancer cell lines relative to HL-60 versus viability
[3] = HER2+ breast cancer patient, 10 mg/m^2 5 times a week
[4] = HER2+ breast cancer patient, 10 mg/m^2 once a week
[5] = HER2+ breast cancer patient, 10 mg/m^2 three times a week
[6] = pancreatic cancer patient, first tumor, 80 mg/m2 2×week
[7] = pancreatic cancer patient, left lung, 20 mg/m2 twice-week
[8] = pancreatic cancer patient, right hilum LN, 20 mg/m2 twice-week
[9] = pancreatic cancer patient, second tumor, 80 mg/m2 2×week

With `CC(C)NCCCn1c(Sc2cc3c(cc2I)OCO3)nc2c(N)ncnc21` [PU-H71] the EC50 (HSP90 [1]; fluorescence polarization) was […], the pIC50 (HSP90 [1]; read-out: IC50, affinity for HSP90) was […] and the pEC50 (HSP90 [2]; read-out: EC50, affinity for normal blood cells, normal blood cells) was […]. The pIC50 (HSP90 [2]; bcCML) was […], the pIC50 (HSP90 [2]; normal blood cells) was […] and the pEC50 (HSP90 [2]; read-out: half relative binding affinity (EC50), AML blasts) was […]. The pEC50 (HSP90 [2]; read-out: half relative binding affinity (EC50), CML blasts) was […], the pEC50 (HSP90 [2]; read-out: half relative binding affinity (EC50), K562 cells) was […] and the “drop in the number of CTCs in the blood” value (circulating tumor cells) was 6 fold. For the same compound, the “tumor volume at end of treatment” value (MDA-MB-468 tumors; 5 mg/kg arm) was 139±66 mm^3, the “tumor growth inhibition (TGI)” value (MDA-MB-468 tumors; 5 mg/kg i.p. 3×week, 7 weeks) was 63% and the “tumor growth inhibition (TGI)” value (MDA-MB-468 tumors; 25 mg/kg i.p. 3×week, 7 weeks) was 82%. The “tumor growth inhibition (TGI)” value (MDA-MB-468 tumors; 50 mg/kg i.p. 3×week, 7 weeks) was 99%, the regression (MDA-MB-468 tumors; 75 mg/kg i.p. 3×week, 7 weeks) was 100% and the anti-tumor effect (MDA-MB-468 tumors; 1×week) was “significant tumor growth inhibition”. The anti-tumor effect (MDA-MB-468 tumors; 2×week) was “tumor regressions”, the “average occupancy of tumor HSP90 sites needed for tumor regression and cure” value (MDA-MB-468 tumors; averaged over the time of treatment) was “over 80%” and the “average occupied sites that may still lead to partial response” value (MDA-MB-468 tumors; over the time of treatment) was ≥ 15%. For the same compound, the “average tumor concentration needed for tumor regression and cure” value (MDA-MB-468 tumors; over the time of treatment) was […], the “average tumor concentration that may still lead to partial response” value (MDA-MB-468 tumors; over the time of treatment) was […] and the “increase in caspase-3,7 activation” value (caspase-3,7; Kasumi-1 and SKNO-1, 24 h) was “two-fold”. For the same compound, the “increase in caspase-3,7 activation” value (caspase-3,7; MOLM-13 and MO-91, 24 h) was “ten-fold”, the average tumor concentration (patient tumors; [3]) was 0.81 µM and the “tumor AUC0-336 h” value (patient tumors; [3]) was 189.8 μM-h. For the same compound, the average tumor concentration (patient tumors; [4]) was 0.41 µM, the “tumor AUC0-336 h” value (patient tumors; [4]) was 54 μM-h and the average tumor concentration (patient tumors; [5]) was 0.71 µM. For the same compound, the “tumor AUC0-336 h” value (patient tumors; [5]) was 140.8 μM-h, the average tumor concentration (patient tumors; HER2+ breast cancer patient, 10 mg/m^2 twice a week) was 0.59 µM and the “tumor AUC0-336 h” value (patient tumors; HER2+ breast cancer patient, 10 mg/m^2 twice a week for two weeks) was 103 μM-h. The average tumor concentration (patient tumors; [6]) was > 2.8 µM, the tumor exposure (patient tumors; [6]) was “above 760 uM-h” and the average tumor concentration (patient tumors; [7]) was 0.71 µM. For the same compound, the “tumor AUC” value (patient tumors; [7]) was 190 μM-h, the average tumor concentration (patient tumors; [8]) was 1.57 µM and the “tumor AUC” value (patient tumors; [8]) was 499 μM-h. The average tumor concentration (patient tumors; [9]) was > 6.3 µM, the tumor exposure (patient tumors; [9]) was > 1998 uM-h and the “tumor AUC0-48 h” value (patient tumors; 10 mg/m^2, estimated from [^124I]-PU-H71 PET) was 24.9 μM-h. For the same compound, the “tumor AUC0-48 h” value (patient tumors; co-injection with 10 mg/m2 PU-H71) was 22.3 μM-h and the “sensitivity of HL-60 leukemia cells” value (oncogenic HSP90) was “resistant”.
